Test results: patent US11452292B2, “Biofilm inhibitor and method of inhibiting biofilm” (NDSU Research Foundation, priority 2017, dated 2022)
Values after ≈ are worked out from the molar mass of the structure shown. Read-outs that look alike come from different tables or passages of the source.

Key:
E. coli K-12 [1] = test: Biofilm, supplement/control, TB medium; type: cell-based
E. coli K-12 [2] = type: cell-based
E. coli O157:H7 [3] = test: Bacterial cell number in liquid beef broth at 10° C.; type: cell-based; details: Escherichia coli, read-out: IC50 cell number
E. coli O157:H7 [4] = test: Biofilm amounts in liquid beef broth at 10° C.; type: cell-based; details: for effect on bacterial cell counts and biofilm amounts: E. coli O157:H7 grown in liquid beef broth at 10° C.; for IC50: Escherichia coli, read-out: IC50 biofilm
flhD [5] = test: flhD, supplement/control, TB medium; type: cell-based, E. coli K-12
Y. enterocolitica [6] = test: Planktonic growth (maximal velocity of OD600) in TSB; type: cell-based, Yersinia enterocolitica; details: Yersinia enterocolitica, Y. enterocolitica, 37° C.
Method: (§1) The IC50 values were calculated using […] software (Hitachi Solutions, San Bruno, Calif.).

flhD [7] = test: qPCR of mRNA transcript in response to AAA; details: 5 mg/ml AAA; biofilm associated and planktonic bacteria, 25 and 37° C.
S. marcescens [8] = test: Growth and biofilm assays taken together (growth, CV, ATP); details: Serratia marcescens, read-out: IC50 values, range over growth, CV and ATP assays
Y. enterocolitica [9] = test: Biofilm amounts, CV assay, 24-well polystyrene plate; type: cell-based, Yersinia enterocolitica; details: Yersinia enterocolitica, Y. enterocolitica
From the text: (§2) Data were expressed as OD600.

C. sakazakii [10] = test: as above; type: cell-based; details: Cronobacter sakazakii, 37° C.
From the text: as §2

S. marcescens [11] = test: as above; type: cell-based; details: Serratia marcescens, 30° C.
From the text: as §2

S. marcescens [12] = test: Biofilm amounts, ATP assay, 24-well polystyrene plate; type: cell-based; details: Serratia marcescens, 30° C.
yadA = test: qPCR of mRNA transcript in response to AAA; details: 5 mg/ml AAA
C. sakazakii [13] = test: Planktonic growth (maximal velocity of OD600) in TSB; type: cell-based; details: Cronobacter sakazakii, 37° C.
Method: as §1

S. marcescens [14] = test: as above; type: cell-based; details: Serratia marcescens, 30° C.
Method: as §1

C. sakazakii [15] = test: Growth and biofilm assays taken together (growth, CV, ATP); details: Cronobacter sakazakii, read-out: IC50 values, range over growth, CV and ATP assays
Y. enterocolitica [16] = test: Biofilm amounts, ATP assay, 24-well polystyrene plate; type: cell-based, Yersinia enterocolitica; details: Yersinia enterocolitica, Y. enterocolitica
Y. enterocolitica [17] = test: Motility assay on motility plates; type: cell-based, Yersinia enterocolitica; details: 5 mg/ml of AAA, 25° C., semi solid tryptone broth agar plates
ymoA = test: qPCR of mRNA transcript in response to AAA; details: 5 mg/ml AAA
C. sakazakii [18] = test: Biofilm amounts, ATP assay, 24-well polystyrene plate; type: cell-based; details: Cronobacter sakazakii, 37° C.
virF = test: qPCR of mRNA transcript in response to AAA; details: 5 mg/ml AAA; biofilm, both temperatures
Y. enterocolitica [19] = test: Growth and biofilm assays taken together (growth, CV, ATP); details: Yersinia enterocolitica, read-out: IC50 values, range over growth, CV and ATP assays
bacteria = test: Live/dead assay with fluorescence dyes; type: cell-based; details: live/dead staining, preliminary data
Method: To determine whether the bacteria were being adversely affected by PEA, a live/dead assay was performed where the total bacterial population and the population of dead bacteria were stained with different fluorescence dyes. […] This supports the argument that the bacterial nutrients reduce biofilm amounts without killing the bacteria, therefore, reducing the likelihood of the development of resistance.

S. aureus = test: Biofilm amounts on PEA containing polyurethane relative to plain polyurethane; type: cell-based, Staphylococcus aureus; details: 5 wt. % PEA in polyurethane vs 0% PEA
From the text: The instant inventors modified a material that is commonly used in clinical and food processing contexts, polyurethane, with β-phenylethylamine (PEA). To produce the PEA containing polyurethane (PU-PEA), food grade polyurethane (Zythane 7085A™) was impregnated with 0, 2.5, 5.0, and 10.0 weight percent PEA and a heat-melt extruded. At 10 wt. %, PEA formed aggregates and was not anymore uniformly distributed throughout the material (FIG. 17).
The biofilm inhibiting efficacy of 5 wt. % PEA was then tested against six bacterial strains (FIG. 18). E. coli AJW is non-pathogenic and was described as a good former of biofilm, P. aeruginosa is a pathogen that was described as a contaminant on conveyor belts, but also forms biofilm on urinary catheters. S. aureus causes staph infections and can form biofilm in intravenous catheters, E. coli O157:H7 has been studied in multiple foods and on numerous food processing surfaces, and the two E. coli UPEC strains are uropathogens that are commonly found on catheters. PU/PEA had reduced biofilm amounts relative to plain polyurethane for all strains tested. Reductions varied between 5 and 80% in depending on the bacterial pathogen. In particular, this initial PU-PEA material was able to reduce Staphylococcus aureus biofilm by 80% and biofilm of several other bacterial pathogens by 20 to 50%.

In the case of NC(=O)C[C@@H](N)C(=O)O [D-asparagine], the “Ratio, biofilm (supplement/control)” value (E. coli K-12 [1]) is reported as 1.07, the “Ratio, growth (supplement/control)” value (E. coli K-12 [2]) is reported as 0.9 and the IC50 (E. coli O157:H7 [3]) is reported as 0.62 mg/mL (≈ 4.69 mM). The “effect on bacterial cell counts and biofilm amounts” value (E. coli O157:H7 [4]) was “inhibit bacterial cell counts and biofilm amounts”, the IC50 (E. coli O157:H7 [4]) was 0.2 mg/mL (≈ 1.51 mM) and the “Ratio, flhD (supplement/control)” value (flhD [5]) was 1.2.
With O=C[C@H](O)[C@H](O)[C@@H](O)CO [L-lyxose] the “Ratio, biofilm (supplement/control)” value (E. coli K-12 [1]) was 0.71, the “Ratio, growth (supplement/control)” value (E. coli K-12 [2]) was 0.98 and the IC50 (E. coli O157:H7 [3]) was 72 mg/mL (≈ 480 mM). For the same compound, the “effect on bacterial cell counts and biofilm amounts” value (E. coli O157:H7 [4]) was “inhibit bacterial cell counts and biofilm amounts”, the IC50 (E. coli O157:H7 [4]) was 76 mg/mL (≈ 506 mM) and the “Ratio, flhD (supplement/control)” value (flhD [5]) was 0.68.
CCC(=O)C(=O)O [α-keto-butyric acid] was tested, and the “effect on growth and biofilm amounts” value (E. coli K-12 [1]) was “inhibitors of growth and biofilm amounts”, the “Ratio, biofilm (supplement/control)” value (E. coli K-12 [1]; E. coli K-12, TB, 25° C.) was 0.62 and the “Ratio, growth (supplement/control)” value (E. coli K-12 [2]; E. coli K-12, TB, 25° C.) was 0.54. For the same compound, the “Ratio, flhD (supplement/control)” value (flhD [5]; E. coli K-12, TB, 25° C.) was 0.57.
Cc1c[nH]c(=O)[nH]c1=O [thymine] was tested, and the “effect on bacterial cell counts and biofilm amounts” value (E. coli O157:H7 [4]) was “inhibit bacterial cell counts and biofilm amounts”.
In the case of O=C[C@H](O)[C@@H](O)[C@H](O)CO [D-xylose], the “effect on growth and biofilm amounts” value (E. coli K-12 [1]) is reported as “inhibitors of growth and biofilm amounts”, the “Ratio, biofilm (supplement/control)” value (E. coli K-12 [1]; E. coli K-12, TB, 25° C.) is reported as 0.59 and the “Ratio, growth (supplement/control)” value (E. coli K-12 [2]; E. coli K-12, TB, 25° C.) is reported as 0.91. For the same compound, the “Ratio, flhD (supplement/control)” value (flhD [5]; E. coli K-12, TB, 25° C.) was 0.56.
With CCCCCCC(N)C(=O)O (racemic) [D,L-α-aminocaprylic acid] the “Ratio, biofilm (supplement/control)” value (E. coli K-12 [1]) was 0.85, the “Ratio, growth (supplement/control)” value (E. coli K-12 [2]) was 0.26 and the IC50 (E. coli O157:H7 [3]) was 1.96 mg/mL (≈ 12.3 mM). The “effect on bacterial cell counts and biofilm amounts” value (E. coli O157:H7 [4]) was “inhibit bacterial cell counts and biofilm amounts”, the IC50 (E. coli O157:H7 [4]) was 1.84 mg/mL (≈ 11.6 mM) and the “Ratio, flhD (supplement/control)” value (flhD [5]) was 0.55.
In the case of N[C@@H]1C(O)O[C@H](CO)[C@@H](O)[C@@H]1O (stereo partly drawn) [D-mannosamine], the “effect on bacterial cell counts and biofilm amounts” value (E. coli O157:H7 [4]) is reported as “inhibit bacterial cell counts and biofilm amounts”.
With CC(=O)CC(=O)O [AAA, acetoacetate] the IC50 (Y. enterocolitica [6]) was 11 mg/mL (≈ 108 mM), the “reduction of mRNA levels of flhD” value (flhD [7]) was “approximately 5 fold” and the IC50 (S. marcescens [8]) was 24 to 35 mg/mL (≈ 235 to 343 mM). It also gave an IC50 (Y. enterocolitica [9]; 25° C.) of 26 mg/mL (≈ 255 mM), an IC50 (Y. enterocolitica [9]; 37° C.) of 14 mg/mL (≈ 137 mM) and an IC50 (C. sakazakii [10]) of 22 mg/mL (≈ 215 mM). For the same compound, the IC50 (S. marcescens [11]) was 35 mg/mL (≈ 343 mM), the IC50 (S. marcescens [12]) was 24 mg/mL (≈ 235 mM) and the “reduction of mRNA levels for yadA” value (yadA; biofilm bound bacteria at 25° C.) was ~10 fold. The “reduction of mRNA levels for yadA” value (yadA; planktonic bacteria at 37° C.) was “approximately 20 fold”, the IC50 (C. sakazakii [13]) was 20 mg/mL (≈ 196 mM) and the IC50 (S. marcescens [14]) was 29 mg/mL (≈ 284 mM). It also gave an IC50 (C. sakazakii [15]) of 20 to 24 mg/mL (≈ 196 to 235 mM), an IC50 (Y. enterocolitica [16]; 25° C.) of 18 mg/mL (≈ 176 mM) and an IC50 (Y. enterocolitica [16]; 37° C.) of 12 mg/mL (≈ 118 mM). The “motility in the presence of AAA” value (Y. enterocolitica [17]) was “about 0.25 mm/h”, the “effect of AAA on ymoA transcription” value (ymoA) was “no effect” and the IC50 (C. sakazakii [18]) was 24 mg/mL (≈ 235 mM). The “reduction of virF transcript” value (virF) was “about 3 fold” and the IC50 (Y. enterocolitica [19]) was 11 to 14 mg/mL (≈ 108 to 137 mM).
NCCc1ccccc1 [PEA, β-phenylethylamine] was tested, and the “viability of the bacteria” value (bacteria) was “not impacted”, the “Ratio, biofilm (supplement/control)” value (E. coli K-12 [1]) was 1.1 and the “Ratio, growth (supplement/control)” value (E. coli K-12 [2]) was 0.81. The IC50 (E. coli O157:H7 [3]) was 0.32 mg/mL (≈ 2.64 mM), the “reduction of Staphylococcus aureus biofilm” value (S. aureus) was 80% and the “effect on bacterial cell counts and biofilm amounts” value (E. coli O157:H7 [4]) was “inhibit bacterial cell counts and biofilm amounts”. For the same compound, the IC50 (E. coli O157:H7 [4]) was 0.34 mg/mL (≈ 2.81 mM) and the “Ratio, flhD (supplement/control)” value (flhD [5]) was 1.3.
O=P(O)(O)OCC(O)CO (racemic) [D,L-glycerol phosphate] was tested, and the “effect on bacterial cell counts and biofilm amounts” value (E. coli O157:H7 [4]) was “inhibit bacterial cell counts and biofilm amounts”.
